PubChem BioAssay AID1963839 (Molecular Pharmacology Branch, DTP, NCI, 2024)
pIC50: −log10 of the molar value.

Test system: 817829-284-R-J1-PDC complex spheroid viability
Experiment: Anticancer human tumor 817829-284-R-J1-PDC patient-derived colon adenocarcinoma cell line growth inhibition [POLQ]
Conditions: for pIC50: curve of first compound; for viability, T/C: stronger effect = lower value
How it was run: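 Complex spheroid viability model combining PDC tumour cells with endothelial (HUVEC) and MSC stromal cells. Novobiocin, ART-558 or RP6685 were tested singly and in combination with standard and investigational anticancer drugs. Each was titrated in half-log steps from near clinical Cmax, or from 10 microM where Cmax was unknown.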

[1] = second compound 0.0316 µM, first compound 0.0316 µM
[2] = second compound 0.0316 µM, first compound 0.1 µM
[3] = second compound 0.0316 µM, first compound 0.316 µM
[4] = second compound 0.0316 µM, first compound 1 µM
[5] = second compound 0.0316 µM, first compound 3.16 µM
[6] = second compound 0.0316 µM, first compound 10 µM
[7] = second compound 0.1 µM, first compound 0.0316 µM
[8] = second compound 0.1 µM, first compound 0.1 µM
[9] = second compound 0.1 µM, first compound 0.316 µM
[10] = second compound 0.1 µM, first compound 1 µM
[11] = second compound 0.1 µM, first compound 3.16 µM
[12] = second compound 0.1 µM, first compound 10 µM
[13] = second compound 0.316 µM, first compound 0.0316 µM
[14] = second compound 0.316 µM, first compound 0.1 µM
[15] = second compound 0.316 µM, first compound 0.316 µM
[16] = second compound 0.316 µM, first compound 1 µM
[17] = second compound 0.316 µM, first compound 3.16 µM
[18] = second compound 0.316 µM, first compound 10 µM
[19] = second compound 1 µM, first compound 0.0316 µM
[20] = second compound 1 µM, first compound 0.1 µM
[21] = second compound 1 µM, first compound 0.316 µM
[22] = second compound 1 µM, first compound 1 µM
[23] = second compound 1 µM, first compound 3.16 µM
[24] = second compound 1 µM, first compound 10 µM
[25] = second compound 3.16 µM, first compound 0.0316 µM
[26] = second compound 3.16 µM, first compound 0.1 µM
[27] = second compound 3.16 µM, first compound 0.316 µM
[28] = second compound 3.16 µM, first compound 1 µM
[29] = second compound 3.16 µM, first compound 3.16 µM
[30] = second compound 3.16 µM, first compound 10 µM
[31] = second compound 10 µM, first compound 0.0316 µM
[32] = second compound 10 µM, first compound 0.1 µM
[33] = second compound 10 µM, first compound 0.316 µM
[34] = second compound 10 µM, first compound 1 µM
[35] = second compound 10 µM, first compound 3.16 µM
[36] = second compound 10 µM, first compound 10 µM
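Note: spheroids exposed to compounds for 7 days.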
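Throughout, for viability, T/C: 100% = DMSO vehicle-treated spheroids.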

CC1COCCN1c1cc(C2(S(C)(=N)=O)CC2)nc(-c2ccnc3[nH]ccc23)n1 (stereo unspecified) + Cc1cccc(N(C)C(=O)C2C(O)CCN2c2nc(C)cc(C(F)(F)F)c2C#N)c1
pIC50 (second compound 0.0316 µM): 6.42
pIC50 (second compound 0.1 µM): 6.39
pIC50 (second compound 0.316 µM): 6.25
pIC50 (second compound 1 µM): 6.47
pIC50 (second compound 3.16 µM): 6.40
pIC50 (second compound 10 µM): 6.34
viability, T/C [1]: 114%
viability, T/C [2]: 82.1%
viability, T/C [3]: 62%
viability, T/C [4]: 20.7%
viability, T/C [5]: 9.12%
viability, T/C [6]: 5.39%
viability, T/C [7]: 80.6%
viability, T/C [8]: 91.1%
viability, T/C [9]: 53.5%
viability, T/C [10]: 24.7%
viability, T/C [11]: 7.03%
viability, T/C [12]: 4.47%
viability, T/C [13]: 121%
viability, T/C [14]: 102%
viability, T/C [15]: 75.9%
viability, T/C [16]: 25.7%
viability, T/C [17]: 9.72%
viability, T/C [18]: 5.65%
viability, T/C [19]: 104%
viability, T/C [20]: 118%
viability, T/C [21]: 52%
viability, T/C [22]: 30.7%
viability, T/C [23]: 7.73%
viability, T/C [24]: 5.65%
viability, T/C [25]: 105%
viability, T/C [26]: 86.3%
viability, T/C [27]: 54.6%
viability, T/C [28]: 28.7%
viability, T/C [29]: 7.73%
viability, T/C [30]: 4.73%
viability, T/C [31]: 75.6%
viability, T/C [32]: 92.2%
viability, T/C [33]: 56.6%
viability, T/C [34]: 27.7%
viability, T/C [35]: 8.08%
viability, T/C [36]: 5.23%

CC[C@@]1(O)C(=O)OCc2c1cc1n(c2=O)Cc2cc3c(CN(C)C)c(O)ccc3nc2-1 + Cc1cccc(N(C)C(=O)C2C(O)CCN2c2nc(C)cc(C(F)(F)F)c2C#N)c1
pIC50 (second compound 0.0316 µM): 8.16
pIC50 (second compound 0.1 µM): 8.12
pIC50 (second compound 0.316 µM): 8.09
pIC50 (second compound 1 µM): 8.16
pIC50 (second compound 3.16 µM): 8.14
pIC50 (second compound 10 µM): 8.16
viability, T/C (second compound 0.0316 µM, first compound 0.000316 µM): 109%
viability, T/C (second compound 0.0316 µM, first compound 0.001 µM): 121%
viability, T/C (second compound 0.0316 µM, first compound 0.00316 µM): 78.5%
viability, T/C (second compound 0.0316 µM, first compound 0.01 µM): 38%
viability, T/C [1]: 22.6%
viability, T/C [2]: 18.1%
viability, T/C (second compound 0.1 µM, first compound 0.000316 µM): 87.9%
viability, T/C (second compound 0.1 µM, first compound 0.001 µM): 118%
viability, T/C (second compound 0.1 µM, first compound 0.00316 µM): 72.8%
viability, T/C (second compound 0.1 µM, first compound 0.01 µM): 43.6%
viability, T/C [7]: 23.5%
viability, T/C [8]: 17.4%
viability, T/C (second compound 0.316 µM, first compound 0.000316 µM): 103%
viability, T/C (second compound 0.316 µM, first compound 0.001 µM): 96.8%
viability, T/C (second compound 0.316 µM, first compound 0.00316 µM): 61.6%
viability, T/C (second compound 0.316 µM, first compound 0.01 µM): 54.1%
viability, T/C [13]: 20%
viability, T/C [14]: 15.3%
viability, T/C (second compound 1 µM, first compound 0.000316 µM): 124%
viability, T/C (second compound 1 µM, first compound 0.001 µM): 84.9%
viability, T/C (second compound 1 µM, first compound 0.00316 µM): 76.2%
viability, T/C (second compound 1 µM, first compound 0.01 µM): 38.9%
viability, T/C [19]: 22%
viability, T/C [20]: 17.2%
viability, T/C (second compound 3.16 µM, first compound 0.000316 µM): 89.7%
viability, T/C (second compound 3.16 µM, first compound 0.001 µM): 123%
viability, T/C (second compound 3.16 µM, first compound 0.00316 µM): 83.2%
viability, T/C (second compound 3.16 µM, first compound 0.01 µM): 37.2%
viability, T/C [25]: 21.4%
viability, T/C [26]: 16.8%
viability, T/C (second compound 10 µM, first compound 0.000316 µM): 89.5%
viability, T/C (second compound 10 µM, first compound 0.001 µM): 113%
viability, T/C (second compound 10 µM, first compound 0.00316 µM): 82.7%
viability, T/C (second compound 10 µM, first compound 0.01 µM): 34.8%
viability, T/C [31]: 22.2%
viability, T/C [32]: 14.6%

CC1COCCN1c1cc(C2(O)CC3CCC(C2)O3)c2cnn(-c3ccn[nH]3)c2n1 (stereo unspecified) + Cc1cccc(N(C)C(=O)C2C(O)CCN2c2nc(C)cc(C(F)(F)F)c2C#N)c1
pIC50 (second compound 0.0316 µM): > 7.50
pIC50 (second compound 0.1 µM): > 7.50
pIC50 (second compound 0.316 µM): > 7.50
pIC50 (second compound 1 µM): > 7.50
pIC50 (second compound 3.16 µM): > 7.50
pIC50 (second compound 10 µM): > 7.50
viability, T/C [1]: 28.6%
viability, T/C [2]: 10.7%
viability, T/C [3]: 4.5%
viability, T/C [4]: 3.59%
viability, T/C [5]: 2.99%
viability, T/C [6]: 2.26%
viability, T/C [7]: 29.8%
viability, T/C [8]: 11.4%
viability, T/C [9]: 4.57%
viability, T/C [10]: 3.83%
viability, T/C [11]: 3.59%
viability, T/C [12]: 2.95%
viability, T/C [13]: 28.6%
viability, T/C [14]: 9.76%
viability, T/C [15]: 3.78%
viability, T/C [16]: 3.72%
viability, T/C [17]: 3.01%
viability, T/C [18]: 1.9%
viability, T/C [19]: 24.4%
viability, T/C [20]: 9.97%
viability, T/C [21]: 4.66%
viability, T/C [22]: 4.17%
viability, T/C [23]: 2.77%
viability, T/C [24]: 2.21%
viability, T/C [25]: 26.8%
viability, T/C [26]: 9.02%
viability, T/C [27]: 5.06%
viability, T/C [28]: 3.24%
viability, T/C [29]: 2.62%
viability, T/C [30]: 2.27%
viability, T/C [31]: 23%
viability, T/C [32]: 10.3%
viability, T/C [33]: 6.05%
viability, T/C [34]: 3.31%
viability, T/C [35]: 2.74%
viability, T/C [36]: 2.44%
